Measurements published in patent publication US20190008837A1, “OPHTHALMIC COMPOSITIONS AND ASSOCIATED METHODS” (University of Utah Research Foundation, priority 2016, published 2019).

System: cornea neuron fibers of scratched corneas
Test: Cornea scratch model, cornea neuron regeneration on flatmounts (Example 1)
Format: in vivo, mice
Conditions: eye drops 3 times per day for 5 days, corneas harvested on the 7th day, beta III tubulin staining
Description: Nine mice were divided into three treatment groups having three mice each. The corneas of each of the mice in each of the groups were scratched. The control group was administered a standard blank (e.g. pacebo) composition. The first treatment group received pergolide. The second treatment group received cabergoline. Each of the eye drops was applied 3 times per day for 5 days. The corneas were harvested on the 7th day. The corneas were then fixed in acetone for 1 hour at room temperature and then blocked in 3% BSA for 1 hour. The cornea flatmounts were stained with primary antibody, anti-beta III tubulin antibody (rabbit polyclonal, ab18207) at 1:200 in 3% BSA blocking buffer overnight at 4° C. After washing 3 times for 10 minutes, each of the cornea flatmounts were incubated with secondary antibody (goat anti rabbit, Invitrogen Alexa Fluor 555) at 1:200 in 3% BSA for 1 hour at room temperature. The flatmounts were again washed 3 times for 10 minutes each. Images of the cornea neuron fibers were taken and analyzed under EVOS microscopy.

In the case of C=CCN1C[C@H](C(=O)N(CCCN(C)C)C(=O)NCC)C[C@@H]2c3cccc4[nH]cc(c34)C[C@H]21 [cabergoline], the “cornea neuron regeneration compared to the blank control group” value is reported as “no neuron regeneration”.
